Laboratory results taken from patent publication US12252524B2, “GIP/GLP1 co-agonist compounds” (Eli Lilly and Company, priority 2018, dated 2025).
Numbered stars: 1 amine (or outer) side, 2 acyl side, 3 side chain; on linkers, the order of the positions; unused ones are H or OH. Square brackets hold non-standard residues; d marks the D form. Side chains are listed from the residue outwards. Peptide text beside a SMILES is read from it. * marks the point of attachment. C20 diacid = O=C(O)CCCCCCCCCCCCCCCCCCC(=O)*; γGlu = O=C(O)[C@H](CCC(=O)[*:2])N[*:1]; AEEA = NCCOCCOCC(=O)O; Aib = CC(C)(N)C(=O)O

Tests used:
human Gcg receptor = biological target: T1, human Gcg receptor (Homo sapiens, UniProt P47871); test: [125I]-Glucagon binding (SPA), human Gcg receptor; conditions: read-out: hGLcgR Ki, nM (SEM, n)
T1 construct: expressed in transfected cells; crude membranes
T1 sequence (P47871 26-477): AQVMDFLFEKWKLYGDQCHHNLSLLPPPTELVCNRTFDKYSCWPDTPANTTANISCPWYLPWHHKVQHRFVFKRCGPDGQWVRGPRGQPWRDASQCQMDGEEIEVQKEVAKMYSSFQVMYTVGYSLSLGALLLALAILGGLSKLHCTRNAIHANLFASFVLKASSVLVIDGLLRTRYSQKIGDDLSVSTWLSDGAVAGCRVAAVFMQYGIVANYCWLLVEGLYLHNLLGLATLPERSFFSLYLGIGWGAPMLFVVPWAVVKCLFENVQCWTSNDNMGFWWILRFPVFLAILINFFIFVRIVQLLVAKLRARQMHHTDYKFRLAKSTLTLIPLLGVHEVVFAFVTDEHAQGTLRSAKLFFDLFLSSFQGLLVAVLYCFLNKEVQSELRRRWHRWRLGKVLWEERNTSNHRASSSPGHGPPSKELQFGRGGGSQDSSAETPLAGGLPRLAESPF
In short: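 Crude membranes from cells expressing the receptor, prepared by hypotonic lysis in 50 mM Tris HCl pH 7.5 with protease inhibitors, homogenization and differential centrifugation, were used in a WGA-bead SPA. Binding buffer: 25 mM HEPES pH 7.4, 2.5 mM CaCl2, 1 mM MgCl2, bacitracin, Tween-20.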

human GIP receptor = biological target: T2, human GIP receptor (Homo sapiens, UniProt P48546); test: [125I]-GIP binding (SPA), human GIP receptor; conditions: read-out: hGIPR Ki, nM (SEM, n)
T2 construct: expressed in transfected cells; crude membranes
T2 sequence (P48546 22-466): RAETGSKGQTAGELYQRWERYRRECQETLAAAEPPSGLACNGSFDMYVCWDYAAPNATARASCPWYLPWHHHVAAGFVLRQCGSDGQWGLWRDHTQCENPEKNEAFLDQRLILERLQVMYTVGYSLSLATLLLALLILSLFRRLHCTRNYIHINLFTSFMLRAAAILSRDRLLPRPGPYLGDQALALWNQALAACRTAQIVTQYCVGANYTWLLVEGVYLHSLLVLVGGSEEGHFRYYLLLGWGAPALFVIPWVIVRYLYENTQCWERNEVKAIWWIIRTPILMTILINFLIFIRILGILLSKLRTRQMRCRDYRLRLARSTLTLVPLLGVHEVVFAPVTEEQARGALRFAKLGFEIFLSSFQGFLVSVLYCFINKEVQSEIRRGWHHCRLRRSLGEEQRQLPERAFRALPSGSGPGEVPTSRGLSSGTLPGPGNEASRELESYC

[1] = biological target: human GLP-1 receptor (GLP-1R) (Homo sapiens, UniProt P43220); test: cAMP pharmacological functional assay in presence of casein, hGLP-1R; assay type: cell-based; conditions: HEK293 cells expressing hGLP-1R, 0.1% Casein, geometric mean; read-out: hGLP1R cAMP Rel EC50 nM (SEM, n)
Sequence of human GLP-1 receptor (GLP-1R) (P43220 24-463): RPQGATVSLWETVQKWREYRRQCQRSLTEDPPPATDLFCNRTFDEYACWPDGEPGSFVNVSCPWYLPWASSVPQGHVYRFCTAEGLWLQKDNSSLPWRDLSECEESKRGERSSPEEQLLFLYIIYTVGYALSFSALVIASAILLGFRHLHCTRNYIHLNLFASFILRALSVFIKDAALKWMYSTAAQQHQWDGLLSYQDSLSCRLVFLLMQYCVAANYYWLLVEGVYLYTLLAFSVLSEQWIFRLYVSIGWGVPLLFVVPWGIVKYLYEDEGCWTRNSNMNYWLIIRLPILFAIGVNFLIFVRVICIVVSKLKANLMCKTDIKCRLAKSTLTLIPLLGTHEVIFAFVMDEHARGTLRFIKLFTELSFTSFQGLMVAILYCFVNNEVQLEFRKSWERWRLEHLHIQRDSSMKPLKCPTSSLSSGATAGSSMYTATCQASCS

[2] = biological target: T3, gastric inhibitory peptide receptor (GIPR) (Homo sapiens, UniProt P48546); test: cAMP pharmacological functional assay in presence of casein, hGIPR; assay type: cell-based; conditions: HEK293 cells expressing hGIPR, 0.1% Casein, geometric mean; read-out: hGIPR cAMP Rel EC50 nM (SEM, n)
T3 sequence (P48546 22-466): T2 sequence (P48546 22-466)

human GLP-1R = human GLP-1R (Homo sapiens, UniProt P43220); test: [125I]-GLP-1 binding (SPA), human GLP-1 receptor; design: expressed in transfected cells; crude membranes; conditions: read-out: hGLP1R Ki, (nM) (SEM, n)
Sequence of human GLP-1R (P43220 24-463): as above
In short: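 Membranes: hypotonic lysis (50 mM Tris HCl, pH 7.5, protease inhibitors), Potter-Elvehjem homogenization, high-speed pellet (35000×g 1 h or 25000×g 30 min, 4° C.). Buffer: 25 mM HEPES pH 7.4, 2.5 mM CaCl2, 1 mM MgCl2. Four-parameter IC50 fit; Ki as geometric mean ± SEM.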

SMILES | Ki (human Gcg receptor) [nM] | Ki (human GIP receptor) [nM] | EC50 [1] [nM] | EC50 [2] [nM] | Ki (human GLP-1R) [nM]
CC[C@H](C)[C@H](NC(=O)[C@H](CCCCN)NC(=O)[C@H](CC(=O)O)NC(=O)[C@H](CC(C)C)NC(=O)[C@H](CC(C)C)NC(=O)[C@@H](NC(=O)[C@H](CO)NC(=O)[C@H](Cc1ccc(O)cc1)NC(=O)[C@H](CC(=O)O)NC(=O)[C@H](CO)NC(=O)[C@@H](NC(=O)[C@H](Cc1ccccc1)NC(=O)[C@@H](NC(=O)CNC(=O)[C@H](CCC(=O)O)NC(=O)C(C)(C)NC(=O)[C@@H](N)Cc1ccc(O)cc1)[C@@H](C)O)[C@@H](C)O)[C@@H](C)CC)C(=O)N[C@@H](C)C(=O)N[C@@H](CCC(N)=O)C(=O)NC(C)(C)C(=O)N[C@@H](C)C(=O)N[C@@H](Cc1ccccc1)C(=O)N[C@H](C(=O)N[C@@H](CCC(=O)O)C(=O)N[C@@H](Cc1ccc(O)cc1)C(=O)N[C@@H](CC(C)C)C(=O)N[C@H](C(=O)N[C@@H](CCCCNC(=O)COCCOCCNC(=O)COCCOCCNC(=O)CC[C@H](NC(=O)CCCCCCCCCCCCCCCCCCC(=O)O)C(=O)O)C(=O)NCC(=O)NCC(=O)N1CCC[C@H]1C(=O)N[C@@H](CO)C(=O)N[C@@H](CO)C(=O)NCC(=O)N[C@@H](C)C(=O)N1CCC[C@H]1C(=O)N1CCC[C@H]1C(=O)N1CCC[C@H]1C(=O)N[C@@H](CO)C(N)=O)[C@@H](C)CC)[C@@H](C)CC [Example 37] (H-Y[Aib]EGTFTSDYSILLDKIAQ[Aib]AFIEYLIK([AEEA-AEEA-γGlu-C20 diacid])GGPSSGAPPPS-NH2) | 255 | 0.0523 | 1.15 | 0.269 | 3.84
CC[C@H](C)[C@H](NC(=O)[C@H](CCCCN)NC(=O)[C@H](CC(=O)O)NC(=O)[C@H](CC(C)C)NC(=O)[C@H](CC(C)C)NC(=O)[C@@H](NC(=O)[C@H](CO)NC(=O)[C@H](Cc1ccc(O)cc1)NC(=O)[C@H](CC(=O)O)NC(=O)[C@H](CO)NC(=O)[C@@H](NC(=O)[C@H](Cc1ccccc1)NC(=O)[C@@H](NC(=O)CNC(=O)[C@H](CCC(=O)O)NC(=O)C(C)(C)NC(=O)[C@@H](N)Cc1ccc(O)cc1)[C@@H](C)O)[C@@H](C)O)[C@@H](C)CC)C(=O)N[C@@H](C)C(=O)N[C@@H](CCC(N)=O)C(=O)NC(C)(C)C(=O)N[C@@H](C)C(=O)N[C@@H](Cc1ccccc1)C(=O)N[C@H](C(=O)N[C@@H](CCC(=O)O)C(=O)N[C@@H](Cc1ccc(O)cc1)C(=O)N[C@@H](CC(C)C)C(=O)N[C@H](C(=O)N[C@@H](CCC(=O)O)C(=O)N[C@@H](CCCCNC(=O)COCCOCCNC(=O)COCCOCCNC(=O)CC[C@H](NC(=O)CCCCCCCCCCCCCCCCCCC(=O)O)C(=O)O)C(=O)NCC(=O)N1CCC[C@H]1C(=O)N[C@@H](CO)C(=O)N[C@@H](CO)C(=O)NCC(=O)N[C@@H](C)C(=O)N1CCC[C@H]1C(=O)N1CCC[C@H]1C(=O)N1CCC[C@H]1C(=O)N[C@@H](CO)C(N)=O)[C@@H](C)CC)[C@@H](C)CC [Example 38] (H-Y[Aib]EGTFTSDYSILLDKIAQ[Aib]AFIEYLIEK([AEEA-AEEA-γGlu-C20 diacid])GPSSGAPPPS-NH2) | > 974 | 0.104 | 2.82 | 0.147 | 31.3
CC[C@H](C)[C@H](NC(=O)[C@H](CCCCN)NC(=O)[C@H](CC(=O)O)NC(=O)[C@H](CC(C)C)NC(=O)[C@H](CC(C)C)NC(=O)[C@@H](NC(=O)[C@H](CO)NC(=O)[C@H](Cc1ccc(O)cc1)NC(=O)[C@H](CC(=O)O)NC(=O)[C@H](CO)NC(=O)[C@@H](NC(=O)[C@H](Cc1ccccc1)NC(=O)[C@@H](NC(=O)CNC(=O)[C@H](CCC(=O)O)NC(=O)C(C)(C)NC(=O)[C@@H](N)Cc1ccc(O)cc1)[C@@H](C)O)[C@@H](C)O)[C@@H](C)CC)C(=O)N[C@@H](C)C(=O)N[C@@H](CCC(N)=O)C(=O)NC(C)(C)C(=O)N[C@@H](C)C(=O)N[C@@H](Cc1ccccc1)C(=O)N[C@H](C(=O)N[C@@H](CCC(=O)O)C(=O)N[C@@H](Cc1ccc(O)cc1)C(=O)N[C@@H](CC(C)C)C(=O)N[C@H](C(=O)N[C@@H](CCC(=O)O)C(=O)NCC(=O)N[C@@H](CCCCNC(=O)COCCOCCNC(=O)COCCOCCNC(=O)CC[C@H](NC(=O)CCCCCCCCCCCCCCCCCCC(=O)O)C(=O)O)C(=O)N1CCC[C@H]1C(=O)N[C@@H](CO)C(=O)N[C@@H](CO)C(=O)NCC(=O)N[C@@H](C)C(=O)N1CCC[C@H]1C(=O)N1CCC[C@H]1C(=O)N1CCC[C@H]1C(=O)N[C@@H](CO)C(N)=O)[C@@H](C)CC)[C@@H](C)CC [Example 39] (H-Y[Aib]EGTFTSDYSILLDKIAQ[Aib]AFIEYLIEGK([AEEA-AEEA-γGlu-C20 diacid])PSSGAPPPS-NH2) | 161 | 0.0499 | 1.92 | 0.133 | 16.8
CC[C@H](C)[C@H](NC(=O)[C@H](CCCCN)NC(=O)[C@H](CC(=O)O)NC(=O)[C@H](CC(C)C)NC(=O)[C@H](CC(C)C)NC(=O)[C@@H](NC(=O)[C@H](CO)NC(=O)[C@H](Cc1ccc(O)cc1)NC(=O)[C@H](CC(=O)O)NC(=O)[C@H](CO)NC(=O)[C@@H](NC(=O)[C@H](Cc1ccccc1)NC(=O)[C@@H](NC(=O)CNC(=O)[C@H](CCC(=O)O)NC(=O)C(C)(C)NC(=O)[C@@H](N)Cc1ccc(O)cc1)[C@@H](C)O)[C@@H](C)O)[C@@H](C)CC)C(=O)N[C@@H](C)C(=O)N[C@@H](CCC(N)=O)C(=O)NC(C)(C)C(=O)N[C@@H](C)C(=O)N[C@@H](Cc1ccccc1)C(=O)N[C@H](C(=O)N[C@@H](CCC(=O)O)C(=O)N[C@@H](Cc1ccc(O)cc1)C(=O)N[C@@H](CC(C)C)C(=O)N[C@H](C(=O)N[C@@H](CCC(=O)O)C(=O)NCC(=O)NCC(=O)N[C@@H](CCCCNC(=O)COCCOCCNC(=O)COCCOCCNC(=O)CC[C@H](NC(=O)CCCCCCCCCCCCCCCCCCC(=O)O)C(=O)O)C(=O)N[C@@H](CO)C(=O)N[C@@H](CO)C(=O)NCC(=O)N[C@@H](C)C(=O)N1CCC[C@H]1C(=O)N1CCC[C@H]1C(=O)N1CCC[C@H]1C(=O)N[C@@H](CO)C(N)=O)[C@@H](C)CC)[C@@H](C)CC [Example 40] (H-Y[Aib]EGTFTSDYSILLDKIAQ[Aib]AFIEYLIEGGK([AEEA-AEEA-γGlu-C20 diacid])SSGAPPPS-NH2) | 150 | 0.0345 | 0.746 | 0.136 | 7.56
CC[C@H](C)[C@H](NC(=O)[C@H](CCCCN)NC(=O)[C@H](CC(=O)O)NC(=O)[C@H](CC(C)C)NC(=O)[C@H](CC(C)C)NC(=O)[C@@H](NC(=O)[C@H](CO)NC(=O)[C@H](Cc1ccc(O)cc1)NC(=O)[C@H](CC(=O)O)NC(=O)[C@H](CO)NC(=O)[C@@H](NC(=O)[C@H](Cc1ccccc1)NC(=O)[C@@H](NC(=O)CNC(=O)[C@H](CCC(=O)O)NC(=O)C(C)(C)NC(=O)[C@@H](N)Cc1ccc(O)cc1)[C@@H](C)O)[C@@H](C)O)[C@@H](C)CC)C(=O)N[C@@H](C)C(=O)N[C@@H](CCC(N)=O)C(=O)NC(C)(C)C(=O)N[C@@H](C)C(=O)N[C@@H](Cc1ccccc1)C(=O)N[C@H](C(=O)N[C@@H](CCC(=O)O)C(=O)N[C@@H](Cc1ccc(O)cc1)C(=O)N[C@@H](CC(C)C)C(=O)N[C@H](C(=O)N[C@@H](CCC(=O)O)C(=O)NCC(=O)NCC(=O)N1CCC[C@H]1C(=O)N[C@@H](CCCCNC(=O)COCCOCCNC(=O)COCCOCCNC(=O)CC[C@H](NC(=O)CCCCCCCCCCCCCCCCCCC(=O)O)C(=O)O)C(=O)N[C@@H](CO)C(=O)NCC(=O)N[C@@H](C)C(=O)N1CCC[C@H]1C(=O)N1CCC[C@H]1C(=O)N1CCC[C@H]1C(=O)N[C@@H](CO)C(N)=O)[C@@H](C)CC)[C@@H](C)CC [Example 41] (H-Y[Aib]EGTFTSDYSILLDKIAQ[Aib]AFIEYLIEGGPK([AEEA-AEEA-γGlu-C20 diacid])SGAPPPS-NH2) | 165 | 0.0551 | 0.96 | 0.229 | 13.4
